Values joined by “and” are separate entries in the source; they are usually repeats but may differ in a detail not shown here. Identical values can stand only once. Counter-ions that a name gives are not always drawn. Marks after values point to notes of the source that are not given here.
Tests used:
[1] = in vivo; conditions: male, SD, rat, plasma, po, 50 mg/kg
[2] = in vivo; conditions: male, SD, rat, plasma, po, 50 mg/kg; for AUC(0-inf): AUC0-inf of gefitinib; for AUC(0-t): AUC0-t of gefitinib; for Cmax: Cmax of gefitinib; for MRT inf: MRTinf of gefitinib; for half-life: t1/2 of gefitinib
[3] = system: NCI-H520 cell xenograft; assay: NCI-H520 xenograft nude mice, 35 days oral: gefitinib 120 mg/kg single, bojungikgi-tang 400 mg/kg single, or co-administered within 5 minutes; assay type: in vivo, Balb/c Slc nu/nu mice; conditions: co-adm BJIKT 100/200/400 mg/kg in order
Experimental: A total of 73 nude mice were purchased, and NCI-H520 cells were xenografted into a subcutaneous region of a right hip each of 67 mice. 14 days after the grafting, the xenografted mice having a tumor volume of 100 mm^3 or more were selected, and divided into seven groups of 6 mice each to be used in the experiment as listed in Table 16. Separately, 6 mice were prepared as the vehicle control.
Then, the NCI-H520 cells were cultured to a density of 1.0×10^8 cells/ml to prepare a tumor cell suspension, and 0.2 mL (2×10^7 cells/head) of the NCI-H520 tumor cell suspension was injected into subcutaneous regions of right back buttocks of the mice to form a solid tumor mass.

[4] = system: HepG2 cells; assay: HepG2 cell viability, MTT method (YMJHT, sorafenib); assay type: cell-based; conditions: Homo sapiens
[5] = sorafenib 100 mg/kg single
[6] = system: HepG2 cells; assay: HepG2 cell viability, MTT method (BJIKT, sorafenib); assay type: cell-based; conditions: Homo sapiens
[7] = mouse, in vivo
[8] = in vivo; conditions: male, SD, rat, plasma; for Cmax / MRT inf / Tmax / half-life: oral; for Cmax: Blood Cmax of tamoxifen; for MRT inf: Blood MRTinf of tamoxifen; for Tmax: Blood Tmax of tamoxifen; for half-life: Blood t1/2 of tamoxifen; for AUC(0-inf) / AUC(0-t): po, 50 mg/kg; for AUC(0-inf): Blood tamoxifen AUC0-inf; for AUC(0-t): Blood tamoxifen AUC0-t
[9] = in vivo; conditions: male, SD, rat, plasma
[10] = system: MCF-7 cell xenograft; assay: MCF-7 xenograft nude mice, 35 days oral: tamoxifen 20 mg/kg single, JEKHT 500 mg/kg single, or co-administered within 5 minutes; tumor, immune and cachexia readouts; assay type: in vivo, Balb/c Slc nu/nu mice
Description: In Example 3, as laboratory animals, Balb/c Slc nu/nu mice (5-week-old females, SLC, Shizuoka, Japan) were used. Seventy three nude mice were purchased, and sixty seven xenografted mice having a tumor volume of 50 mm^3 or more 14 days after MCF-7 cells were xenografted into subcutaneous parts of a right hip of each mouse were selected, and divided into groups of seven mice each.
The xenografted MCF-7 cells were maintained by sub-culturing the MCF-7 cells (American Type Culture Collection Center, VA, USA) using 10% fetal bovine serum (FBS)-added RPMI 1640 (Gibco, Grand Island, N.Y., USA) media in a 5% C02 incubator at 37° C., and a solid tumor mass was formed by preparing a tumor cell suspension to have a cell concentration of 1.0×10^8 cell/ml, and grafting 0.2 ml (2×10^7 cell/mouse) of the MCF-7 tumor cell suspension on a subcutaneous part of a right hip of each mouse.

[11] = co-adm JEKHT 125/250/500 mg/kg in order
[12] = co-adm JEKHT dose given in table
[13] = submandibular lymph node, JEKHT dose = table row
[14] = tumor mass, JEKHT dose = table row

With `COc1cc2ncnc(Nc3ccc(F)c(Cl)c3)c2cc1OCCCN1CCOCC1` [Gefitinib] as the compound, how does the AUC(0-inf) [1] read?
The AUC(0-inf) was 16400 ± 9310 ng·h/mL.

And the AUC(0-t) [1]?
The AUC(0-t) was 14600 ± 9450 ng·h/mL.

What about the Cmax [1] of the same compound?
Its Cmax is 2160 ± 760 ng/mL.

What about the half-life [1] of the same compound?
Its half-life is 2.59 ± 0.76 h.

What about the AUC(0-inf) ([2]; 9th administration) of the same compound?
The AUC(0-inf) was 16900 ± 4140 ng·h/mL.

What about the AUC(0-inf) ([2]; first gefitinib administration) of the same compound?
The AUC(0-inf) was 20200 ± 4610 ng·h/mL.

What about the AUC(0-t) ([2]; 9th administration) of the same compound?
The AUC(0-t) was 13500 ± 2780 ng·h/mL.

What about the AUC(0-t) ([2]; first gefitinib administration) of the same compound?
Its AUC(0-t) is 15400 ± 2240 ng·h/mL.

What about the Cmax ([2]; 9th administration) of the same compound?
Its Cmax is 3120 ± 770 ng/mL.

And the Cmax ([2]; first gefitinib administration)?
Its Cmax is 3010 ± 480 ng/mL.

And the MRT inf ([2]; 9th administration)?
The MRT inf was 5.71 ± 1.04 h.

What about the MRT inf ([2]; first gefitinib administration) of the same compound?
Its MRT inf is 5.94 ± 1.36 h.

What about the half-life ([2]; 9th administration) of the same compound?
Its half-life is 2.38 ± 0.88 h.

And the half-life ([2]; first gefitinib administration)?
The half-life was 2.82 ± 0.92 h.

And the “Absolute periovarian fat pad weight, change vs TB control” value [3]?
The value was −3.06%.

What about the “Absolute spleen weight, change vs TB control” value [3] of the same compound?
Its value is 14.01%.

And the “Absolute submandibular lymph node weight, change vs TB control” value [3]?
Its value is 50.00%.

And the “Absolute tumor weight change” value [3]?
Its value is −39.14%.

What about the “Blood IFN-γ content, change vs TB control” value [3] of the same compound?
The value was 6.77%.

And the “Blood IL-6 content, change vs TB control” value [3]?
Its value is −12.33%.

And the “Body weight gain, change vs tumor-bearing control” value [3]?
Its value is 68.23%.

And the “COX-2 immunoreactive cells in tumor tissue, change vs TB control” value [3]?
Its value is −42.48%.

What about the “Caspase-3 immunoreactive cells in tumor tissue, change vs TB control” value [3] of the same compound?
Its value is 168.67%.

What about the “Diameter of splenic white pulp, change vs TB control” value [3] of the same compound?
The value was 6.51%.

What about the “Follicles in submandibular lymph node cortex, change vs TB control” value [3] of the same compound?
The value was 15.00%.

What about the “Mean white adipocyte diameter, change vs TB control” value [3] of the same compound?
Its value is −7.01%.

What about the “Number of splenic white pulps, change vs TB control” value [3] of the same compound?
The value was 22.22%.

What about the “PARP immunoreactive cells in tumor tissue, change vs TB control” value [3] of the same compound?
Its value is 125.47%.

What about the “Percentage of apoptotic cells in tumor tissue, change vs TB control” value [3] of the same compound?
Its value is 131.78%.

And the “Percentage of tumor cells in tumor tissue, change vs TB control” value [3]?
Its value is −36.78%.

And the “Periovarian fat pad thickness, change vs TB control” value [3]?
The value was 2.11%.

And the “Spleen IL-1β content, change vs TB control” value [3]?
The value was 8.36%.

And the “Spleen IL-10 content, change vs TB control” value [3]?
The value was 5.16%.

What about the “Spleen TNF-α content, change vs TB control” value [3] of the same compound?
The value was 6.73%.

And the “Splenic NK cell activity, change vs TB control” value [3]?
Its value is 4.93%.

What about the “Submandibular lymph node cortex thickness, change vs TB control” value [3] of the same compound?
The value was 16.19%.

And the “TNF-α immunoreactive cells in tumor tissue, change vs TB control” value [3]?
Its value is 12.63%.

What about the “Total spleen thickness, change vs TB control” value [3] of the same compound?
The value was −6.99%.

What about the “Total submandibular lymph node thickness, change vs TB control” value [3] of the same compound?
Its value is 7.42%.

And the “Tumor volume variation, change vs tumor-bearing control” value [3]?
The value was −55.42%.

What about the “iNOS immunoreactive cells in tumor tissue, change vs TB control” value [3] of the same compound?
Its value is 9.02%.

Which results are given for `CNC(=O)c1cc(Oc2ccc(NC(=O)Nc3ccc(Cl)c(C(F)(F)F)c3)cc2)ccn1` [Sorafenib, sorafenib]?
IC50 [4]: 2.81 µM and 1.31 µg/mL; Deaths, Days of treatment period (Day 0 to 27) [5]: 0; Deaths, Termination date (28th day of administration) [5]: 0; IC50 [6]: 2.8 µM and 1.3 µg/mL; Any abnormal signs ([7]; male, ICR, 28 days): 0/7 (0%); Normal appearance ([7]; male, ICR, 28 days): 7/7 (100%); Adrenal G L absolute weight [7]: 0.003 ± 0.002; BASO (%) [7]: 0.30 ± 0.20%; Body weight gain, Day 0~Day 14 [7]: 6.63 ± 1.62; Body weight gain, Day 14~Day 27 [7]: 2.11 ± 1.51; Brain absolute weight [7]: 0.471 ± 0.022; Epididymis L absolute weight [7]: 0.036 ± 0.004^a; HCT [7]: 41.89 ± 2.13%; HGB [7]: 18.54 ± 0.88 g/dL; Heart absolute weight [7]: 0.155 ± 0.011; Kidney L absolute weight [7]: 0.285 ± 0.042; LN L absolute weight [7]: 0.002 ± 0.001^a; LYM (%) [7]: 70.74 ± 6.08^c %; Liver absolute weight [7]: 1.234 ± 0.149; Lung absolute weight [7]: 0.172 ±0 .010; MCH [7]: 20.89 ± 0.88 pg; MCV [7]: 47.13 ± 2.47 fL; MONO (%) [7]: 5.26 ± 1.55%; NEU (%) [7]: 17.36 ± 5.16^c %; PLT [7]: 804.86 ± 99.24 K/μL; Pancreas S absolute weight [7]: 0.156 ± 0.022; RBC [7]: 8.89 ± 0.39 M/μL; RET [7]: 0.51 ± 0.33 ea/1000; Spleen absolute weight [7]: 0.063 ± 0.007^e; Testis L absolute weight [7]: 0.097 ± 0.006^a; Thymus absolute weight [7]: 0.027 ± 0.004^a; WBC [7]: 1.81 ± 0.53^a K/μL

Which results are given for `CC/C(=C(\c1ccccc1)c1ccc(OCCN(C)C)cc1)c1ccccc1` [Tamoxifen, Tamoxifen citrate]?
Cmax ([8]; 8th administration): 770 ± 220 ng/mL; Cmax ([8]; first tamoxifen administration): 280 ± 160 ng/mL; MRT inf ([8]; 8th administration): 28.5 ± 8.53 h; MRT inf ([8]; first tamoxifen administration): 18.1 ± 5.71 h; Tmax ([8]; 8th administration): 3.4 ± 0.89 h; Tmax ([8]; first tamoxifen administration): 3.6 h; half-life ([8]; 8th administration): 19.6 ± 5.84 h; half-life ([8]; first tamoxifen administration): 13.1 ± 5.77 h; AUC(0-inf) ([8]; 8th administration): 21500 ± 3040 ng·h/mL; AUC(0-inf) ([8]; first tamoxifen administration): 4860 ± 2870 ng·h/mL; AUC(0-t) ([8]; 8th administration): 12400 ± 2660 ng·h/mL; AUC(0-t) ([8]; first tamoxifen administration): 3230 ± 1790 ng·h/mL; AUC(0-inf) ([9]; oral): 6860 ± 2920 ng·h/mL; AUC(0-t) ([9]; oral): 5270 ± 1790 ng·h/mL; Cmax ([9]; oral): 364 ± 122 ng/mL; MRT inf ([9]; oral): 14.9 ± 6.29 h; Tmax ([9]; oral): 5.6 ± 2.19 h; half-life ([9]; po, 50 mg/kg): 9.56 ± 4.16 h; Periovarian fat pad total thickness ([10]; JEKHT dose = table row): 0.28 ± 0.10^a mm/central regions; Spleen total thickness ([10]; JEKHT dose = table row): 1.15 ± 0.13^a mm/central regions; Spleen white pulp diameters ([10]; JEKHT dose = table row): 298.11 ± 61.88^a μm/white pulp; Spleen white pulp numbers ([10]; JEKHT dose = table row): 4.14 ± 1.07^a /mm^2; Submandibular lymph node total thickness ([10]; JEKHT dose = table row): 487.38 ± 83.96^a μm/central regions; Blood IFN-γ content, change vs tumor-bearing control [10, 11]: −14.77%; Blood IL-6 content, change vs tumor-bearing control [10, 11]: 21.68%; Body weight gain, change vs tumor-bearing control [10, 11]: −11162.72%; Peritoneal NK cell activity, change vs tumor-bearing control [10, 11]: −26.39%; Splenic IL-1β content, change vs tumor-bearing control [10, 11]: −10.82%; Splenic IL-10 content, change vs tumor-bearing control [10, 11]: −33.33%; Splenic NK cell activity, change vs tumor-bearing control [10, 11]: −12.73%; Splenic TNF-α content, change vs tumor-bearing control [10, 11]: −23.94%; Tumor volume variation, change vs tumor-bearing control [10, 11]: −66.73%; Periovarian fat pad absolute weight [10, 12]: 0.009 ± 0.003 g; Spleen absolute weight [10, 12]: 0.049 ± 0.009 g; Submandibular lymph node absolute weight [10, 12]: 0.002 ± 0.001 g; Tumor mass absolute weight [10, 12]: 0.047 ± 0.010 g; Tumor volume Changes [B − A] [10, 12]: 125.92 ± 40.49^a mm^3; Tumor volume, Sacrifice [B] [10, 12]: 184.85 ± 37.69^a mm^3; White adipocyte diameters ([10]; periovarian fat pad, JEKHT dose = table row): 19.89 ± 5.09^a μm; Cortex lymphoid cell follicle numbers [10, 13]: 4.14 ± 1.68^gj /mm^2; Cortex thickness [10, 13]: 255.43 ± 46.37^a μm/lymph node; TNF-positive cells [10, 13]: 6.57 ± 2.51^gj cells/mm^2 of lymph node; Apoptotic cell percentages [10, 14]: 27.50 ± 6.62%; Tumor cell volume [10, 14]: 51.00 ± 10.37 %/mm^2

Reference: patent US11065294B2, “Composition including oriental medicine to treat neoplastic disease” (COMPREHENSIVE AND INTEGRATIVE MEDICINE INSTITUTE, priority 2013, dated 2021)
